pIC50, pKi: −log10 of the molar value. Several values for one entry are separate records, joined by “and”; a condition that tells them apart may be missing. Equal entries are not always repeated. Where two headings read alike, the source gives them in different places.
Legend:
Format in all cases: biochemical
CK2α = target: T1, CK2α (Homo sapiens, UniProt P68400); assay: kinase selectivity profile (Reaction Biology Corp.); conditions: 10 µM inhibitor, 10 µM ATP, relative to control without inhibitor; read-out: residual activity
T1 construct: purchased Reaction Biology Corp
T1 sequence (P68400 whole entry): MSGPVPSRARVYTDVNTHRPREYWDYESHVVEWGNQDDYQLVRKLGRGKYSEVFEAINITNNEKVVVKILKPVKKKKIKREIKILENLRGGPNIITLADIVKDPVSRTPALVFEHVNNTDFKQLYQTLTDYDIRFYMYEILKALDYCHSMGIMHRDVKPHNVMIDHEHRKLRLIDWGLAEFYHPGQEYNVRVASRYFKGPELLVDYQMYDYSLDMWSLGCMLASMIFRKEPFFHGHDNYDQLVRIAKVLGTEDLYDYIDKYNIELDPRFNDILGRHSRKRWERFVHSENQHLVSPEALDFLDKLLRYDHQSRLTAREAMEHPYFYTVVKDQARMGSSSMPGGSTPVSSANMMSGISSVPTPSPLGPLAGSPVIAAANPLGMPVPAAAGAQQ
From the text: (§1) This demands further investigation.

CK2α’ = target: T2, CK2α’ (Homo sapiens, UniProt P19784); assay: as above; conditions: 10 µM inhibitor, 10 µM ATP, relative to control without inhibitor; read-out: residual activity
T2 construct: purchased Reaction Biology Corp
T2 sequence (P19784 whole entry): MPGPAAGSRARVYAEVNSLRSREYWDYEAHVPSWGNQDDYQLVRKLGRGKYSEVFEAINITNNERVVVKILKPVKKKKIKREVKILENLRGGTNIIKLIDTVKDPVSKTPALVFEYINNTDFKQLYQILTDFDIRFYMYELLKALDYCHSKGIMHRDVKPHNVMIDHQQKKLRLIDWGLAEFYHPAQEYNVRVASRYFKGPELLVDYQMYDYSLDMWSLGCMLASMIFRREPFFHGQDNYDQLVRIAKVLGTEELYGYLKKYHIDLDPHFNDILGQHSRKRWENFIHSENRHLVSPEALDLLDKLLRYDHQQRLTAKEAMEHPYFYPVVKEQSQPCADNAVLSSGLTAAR
From the text: as §1

FLT3 (D835Y) = target: T3, FLT3 (D835Y) (Homo sapiens, UniProt P36888, D835Y); assay: kinase selectivity profile; conditions: 10 µM inhibitor, 10 µM ATP
T3 construct: purchased Reaction Biology Corp
From the text: as §1

FLT3 = target: T4, FLT3 (Homo sapiens, UniProt P36888); assay: kinase selectivity profile; conditions: 10 µM inhibitor, 10 µM ATP
T4 construct: purchased Reaction Biology Corp
From the text: as §1

CAMKK2 = target: T5, CAMKK2 (Homo sapiens, UniProt Q96RR4); assay: kinase selectivity profile; conditions: 10 µM inhibitor, 10 µM ATP
T5 construct: purchased Reaction Biology Corp
T5 sequence (Q96RR4 whole entry): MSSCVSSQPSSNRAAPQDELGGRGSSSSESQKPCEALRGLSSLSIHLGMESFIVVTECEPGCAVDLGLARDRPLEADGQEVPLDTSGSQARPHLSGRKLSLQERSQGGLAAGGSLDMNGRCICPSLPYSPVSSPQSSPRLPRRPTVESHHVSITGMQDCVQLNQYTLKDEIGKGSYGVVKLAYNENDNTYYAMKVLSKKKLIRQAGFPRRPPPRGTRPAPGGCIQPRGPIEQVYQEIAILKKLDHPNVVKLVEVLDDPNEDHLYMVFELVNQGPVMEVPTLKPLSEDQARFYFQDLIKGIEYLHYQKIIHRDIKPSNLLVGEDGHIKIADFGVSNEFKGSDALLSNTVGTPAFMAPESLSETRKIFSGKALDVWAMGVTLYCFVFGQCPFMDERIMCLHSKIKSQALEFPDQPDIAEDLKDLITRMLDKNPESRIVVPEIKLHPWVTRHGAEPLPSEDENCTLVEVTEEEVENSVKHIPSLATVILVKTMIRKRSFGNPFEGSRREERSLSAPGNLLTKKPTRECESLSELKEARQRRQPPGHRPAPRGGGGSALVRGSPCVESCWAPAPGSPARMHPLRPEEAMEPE
From the text: as §1

[1] = target: T6, surface displayed CK2α’ + CK2β (CK2α’ containing human CK2 holoenzyme) (Homo sapiens, UniProt P19784); assay: whole-cell CK2 selectivity assay, holoenzyme surface displayed on E. coli; conditions: for pIC50: CK2α’ + CK2β displayed on E. coli, 600 µM ATP, 100 µM substrate peptide; for factor of stronger inhibition of CK2α’ containing holoenzyme in comparison to CK2α containing holoenzyme: whole-cell assay, not statistically significant
T6 construct: surface-display (autodisplay) carrier protein; made in house; host or cells: Escherichia coli BL21 (DE3), enzyme left on the cell surface
T6 sequence (P19784 whole entry): as the sequence (P19784 whole entry) above
T6 sequence (P67870 whole entry partner): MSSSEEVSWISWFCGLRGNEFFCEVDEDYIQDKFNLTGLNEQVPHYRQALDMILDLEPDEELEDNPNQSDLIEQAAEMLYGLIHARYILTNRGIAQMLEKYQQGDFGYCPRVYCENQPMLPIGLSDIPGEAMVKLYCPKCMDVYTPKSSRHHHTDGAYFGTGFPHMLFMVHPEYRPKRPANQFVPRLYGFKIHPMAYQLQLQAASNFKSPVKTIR
From the text: We recently reported a whole cell CK2 activity assay, which can be used for testing the selectivity of compounds towards CK2α and CK2α’ [47]. It is based on the surface display of the human CK2 subunits, either α or α’ together with β on E. coli, were they are able to form a functional tetrameric holoenzymes, either ααββ or α’α’ββ, depending on which α isoform has been expressed. This technique was used to investigate whether 4a or 5 have preference to one of the two catalytic isoforms of CK2.
For this purpose, their IC50 were determined following the protocol of the recently described whole-cell CK2 selectivity assay. In summary, 78 µL of a bacterial suspension of Escherichia coli BL21 (DE3) either surface displaying CK2α + CK2β or CK2α’ + CK2β in kinase buffer (50 mM Tris/HCl, pH 8.5, 100 mM NaCl, 10 mM MgCl2 and 1 mM DTT) were supplemented with 2 µL of the test compound dissolved in DMSO and incubated at 37 °C and 400 rpm for 10 min. CK2 reactions were started by the addition of 120 µL of assay buffer (25 mM Tris/HCl, pH 7.5, 150 mM NaCl, 5 mM MgCl2, 1 mM DTT, 167 µM substrate peptide […] and 1 mM ATP) leading to a total reaction volume of 200 µL with final concentrations of 100 µM for the substrate peptide and 600 µM for ATP. […] After the samples were incubated for 120 min at 37 °C and 400 rpm, the CK2 presenting bacteria were removed by centrifugation (3850× g, 5 min, 4 °C). The obtained supernatants were transferred to the wells of a 96 well-microplate and finally supplemented with EDTA to a concentration of 12.5 mM to definitely stop the enzymatic reactions. The samples were then subjected to a Beckman Coulter pa800 plus (Krefeld, Germany) CE system and analyzed for phosphorylation of the substrate peptide. Samples containing pure DMSO served as controls for 0% inhibition and samples additionally lacking ATP served as controls for 100% inhibition. […] IC50 values were calculated from the resulting dose-response curves.
CK2α’ + CK2β (right column).
Mean values ± standard errors of
the means (SEM) are shown. […]

[2] = target: T7, human protein kinase CK2 holoenzyme (CK2α2β2) (Homo sapiens, UniProt P68400); assay: CE-based CK2 inhibition assay (phosphorylation of substrate peptide […]); conditions: for remaining activity at 10 µM: 10 µM compound, compared to activity without compound, read-out: residual enzymatic activity; for pIC50: CK2 holoenzyme, 100 µM ATP, 13 concentrations 0.01 nM to 10 µM
T7 construct: made in house
T7 sequence (P68400 whole entry): as the sequence (P68400 whole entry) above
T7 sequence (P67870 whole entry partner): as the sequence (P67870 whole entry partner) above
Experimental: The phosporylation of an artificial substrate peptide ([…]) by the purified holoenzyme was analyzed in a capillary electrophoresis (CE) assay as described before. This peptide is commonly used for the determination of CK2 activity and phosphorylation was determined in the presence and in the absence of the compounds. For this purpose a stock solution of 10 mM in DMSO was prepared for each compound and diluted in the assay to a final concentration of 10 µM. […] Consequently 13 concentrations of both dibenzofurans, ranging from 0.01 nM to 10 µM were tested on their inhibition of CK2 dependent substrate phosphorylation in the presence of 100 μM ATP. […] This can be used to determine the so-called apparent Ki (Ki app) for different substrate (ATP) concentrations.
Human protein kinase CK2 holoenzyme was pre-incubated for 10 min with 13 different concentrations of each compounds ranging from 0.01 nM to 10 μM before the enzymatic activity was determined. […] The resulting inhibition in % was set into relation to the concentration of the corresponding compound in a logarithmic scale. For the calculation of the sigmoidal curve fitting the date GraphPad Prism (GraphPad, La Jolla, CA, USA) was used, as well as for the compound concentrations corresponding to 50% enzyme inhibition.
Phosphorylation of the substrate peptide […] by human protein kinase CK2 holoenzyme was determined in the CE assay at different ATP-concentrations (6, 30, 60, 150, 300, and 400 μM).
In order to determine the inhibition toward human protein kinase CK2 holoenzyme, the dibenzo[b,d]furan derivatives were subjected to the CE-based CK2 assay, as already described for other novel CK2 inhibitors before. In summary, 78 µL of kinase buffer (50 mM Tris/HCl, pH 7.5, 100 mM NaCl, 10 mM MgCl2 and 1 mM DTT) containing 0.25 µg CK2 holoenzyme were supplemented with 2 µL of the test-compound dissolved in DMSO and incubated at 37 °C for 10 min. After the addition of 120 µL of assay buffer (25 mM Tris/HCl, pH 8.5, 150 mM NaCl, 5 mM MgCl2, 1 mM DTT, 190 µM substrate peptide […] and 100 µM ATP) the CK2 reactions were carried out for 15 min at 37 °C, before they were stopped by ice cooling and the addition of 5 µL of EDTA (10 mM, pH 8.0). The samples were then analyzed for phosphorylation of the CK2 substrate peptide by capillary electrophoresis. […] Controls for 100% and 0% inhibition were realized by samples containing pure DMSO and samples additionally lacking the CK2 holoenzyme. IC50 were calculated from the obtained dose response curves.

[3] = Morrison equation, ATP 6–400 µM, best fit line extrapolated to ATP concentration = 0, read-out: apparent Ki (Ki app)

remaining activity at 10 µM (CK2α) [%] | remaining activity at 10 µM (CK2α’) [%] | kinase inhibited more than 70% at 10 µM concentration (FLT3 (D835Y)) | kinase inhibited more than 70% at 10 µM concentration (FLT3) | kinase inhibited more than 70% at 10 µM concentration (CAMKK2) | pIC50 [1] | factor of stronger inhibition of CK2α’ containing holoenzyme in comparison to CK2α containing holoenzyme [1] | remaining activity at 10 µM [2] [%] | pIC50 [2] | pKi [2, 3] | pKi ([2]; repeated with double the amount of the enzyme CK2, different ATP concentrations, read-out: Ki app) | SMILES
< 2 | < 1 | FLT3 (D835Y) | FLT3 | CAMKK2 | 7.37 | 1.5 | < 1 | 8.15 and 8.30 | 9.39 and 9.40 | ~8.40 | COc1ccc(N/C=C2\C(=O)CCc3c2oc2cc(Cl)c(O)c(Cl)c32)cc1 [4a, 7,9-dichloro-1,2-dihydro-8-hydroxy-4-[(4-methoxyphenylamino)methylene]dibenzo[b,d]furan-3(2H)-one]
< 2 | < 1 | FLT3 (D835Y) | FLT3 | CAMKK2 | 7.14 | 1.5 | < 1 | 8.30 and 8.15 | 9.34 and 9.40 |  | COc1ccc(/N=C/c2c(O)ccc3c2oc2cc(Cl)c(O)c(Cl)c23)cc1 [compound 5, (E)-1,3-dichloro-6-[(4-methoxyphenylimino)methyl]dibenzo[b,d]furan-2,7-diol]
